Results as given in US20080118437A1, “Diagnosis and treatment O prostate cancer” (Regents of the University of Michigan, priority 2006, published 2008).

Key:
VCaP xenografts = test: VCaP subcutaneous xenograft model of tumorigenesis; format: in vivo, male SCID mice
Procedure: Xenograft tumors were established as previously described (Loberg et al., Urol Oncol 24 (2006) 161-168). Briefly, male SCID mice (5-6 weeks of age) were injected subcutaneously in the flank with 1×10^6 VCaP cells in 200 μL Matrigel (BD Biosciences, Inc.). Tumor volumes were calculated by caliper measurement performed weekly to monitor and track tumor growth (tumor volume=L×W×W×0.56). […] Mice were treated with 2 mg/Kg antibody twice weekly by intraperitoneal injection, beginning on Day 28 and for the remainder of the study.
Xenograft tumors were harvested and placed in fresh 10% formalin. Tumors were paraffin-embedded and 5 μm sections were cut and placed on glass slides. Hematoxylin and eosin stain was performed per the manufacturer's instructions (Sigma, Inc.). Identification of neovascularization was accomplished by labeling with an anti-CD31 antibody and macrophage infiltration was identified using an anti-CD68 antibody. Tissue sections were incubated for 10 minutes in citrate buffer, pH 6.0 and microwaved. Sections were incubated with anti-CD31 (DakoCytomation, Inc.; 1:50) or anti-CD68 (DaKoCytomation, Inc.; 1:1600) for 30 minutes and detected with LSAB+detection/DAB (3,3′-Diaminobenzidine; Sigma, Inc.) for 5 minutes. Slides were dipped in hematoxylin for 1 second as a counterstain.

PC-3Luc cells = test: Bioluminescent in vivo model of metastasis (Example 4, antibodies and/or docetaxel); set-up: species or system male SCID mice
Procedure: Bioluminescent imaging of PC-3Luc was preformed as previously described through The University of Michigan Small Animal Imaging Resource facility (MSAIR) (Loberg et al., 2006. Neoplasia. 8:578-586). Briefly, PC-3Luc cells were introduced into male SCID mice (5-6 wks of age) by intracardiac injections. Mice were serially imaged weekly for up to 12 weeks using a CCD IVIS system using a 50 mm lens (Xenogen Corp, Alameda, Calif.) and the results were analyzed using LIVING IMAGE software (Xenogen Corp.). Mice were separated into groups and treatment began at week 2 post-intracardiac injection and mice received 2 mg/Kg antibody twice weekly by intraperitoneal (i.p.) injection (for up to eight weeks) and/or 40 mg/Kg Taxotere i.p. injection once per week for three weeks. Mice were injected with luciferin (40 mg/mL) intraperitoneally and ventral images were acquired 15 min postinjection under 1.75% isofluorane/air anesthesia. Total tumor burden of each animal was calculated using regions of interest (ROIs) that encompassed the entire animal. Animals were sacrificed after week 6 image and individual organs were harvested and immediately placed in formalin.

Substance: CNTO888: human IgG1κ antibody that neutralizes human CCL2
- attenuation of VCaP subcutaneous tumor growth (VCaP xenografts; 2 mg/Kg twice weekly i.p.): 42.2%
- reduction in tumor volume / tumor growth on Day 50 compared to control antibody (VCaP xenografts; 2 mg/Kg twice weekly i.p. from Day 28 for 3 weeks): 42.2%
- macrophage infiltration, CD68+ cells, mean ±SD (VCaP xenografts; VCaP xenograft, 2 mg/Kg twice weekly i.p.): 9.00±7.94 cells per 100× objective field
- angiogenesis by CD31 staining of xenograft tumors (VCaP xenografts; compared to isotype controls): decreased the amount of angiogenesis
- reduction in overall tumor burden compared to control antibody (PC-3Luc cells; Day 35, 2 mg/Kg twice weekly i.p. for three weeks from Day 14): 46.52%
- reduction in tibia-specific tumor burden (PC-3Luc cells; Day 35, compared to control antibody): 45.49%
- animals of group counted at Wk 6 (tumor regression, Table 2) (PC-3Luc cells; Wk 6 = First week after cessation of Taxotere): 1 of 9
- total tumor burden at Day 35 (PC-3Luc cells; antibodies 2 mg/Kg i.p. twice weekly, docetaxel 40 mg/Kg i.p.): 52.78 % of PBS-treated animals
